Results taken from publication PMC9532703, “A novel small molecule RK-019 inhibits FGFR2-amplification gastric cancer cell proliferation and induces apoptosis in vitro and in vivo” (Frontiers in Pharmacology, 2022).

Experiments:
Experiment in all cases: Kinase selectivity panel
Type in all cases: biochemical
Conditions in all cases: read-out: Inhibition(%) @ 1 µM RK-019
CDKL1(h) = molecular target: T1, CDKL1(h) (Homo sapiens, UniProt Q00532)
T1 construct: purchased Eurofins Discovery Services (KinaseProfiler)
In short: (§1)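 Single-point selectivity screen: 1 µM compound, recombinant human enzyme, in vitro ATP-site competition binding; result expressed as inhibition ratio.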

ZAP-70(h) = molecular target: T2, ZAP-70(h) (Homo sapiens, UniProt P43403)
T2 construct: purchased Eurofins Discovery Services (KinaseProfiler)
In short: as §1

ULK3(h) = molecular target: T3, ULK3(h) (Homo sapiens, UniProt Q6PHR2)
T3 construct: purchased Eurofins Discovery Services (KinaseProfiler)
In short: as §1

JAK3(h) = molecular target: T4, JAK3(h) (Homo sapiens, UniProt P52333)
T4 construct: purchased Eurofins Discovery Services (KinaseProfiler)
In short: as §1

Met(D1246H)(h) = molecular target: T5, Met(D1246H)(h) (Homo sapiens, UniProt P08581, D1228H)
T5 construct: purchased Eurofins Discovery Services (KinaseProfiler)
In short: as §1

[1] = molecular target: T6, PI3 Kinase (p110a/p85a)(m) (Mus musculus, UniProt P42337)
T6 construct: purchased Eurofins Discovery Services (KinaseProfiler)

CK1ε(h) = molecular target: T7, CK1ε(h) (Homo sapiens, UniProt P49674)
T7 construct: purchased Eurofins Discovery Services (KinaseProfiler)
In short: as §1

mTOR(h) = molecular target: T8, mTOR(h) (Homo sapiens, UniProt P42345)
T8 construct: purchased Eurofins Discovery Services (KinaseProfiler)
In short: as §1

TTK(h) = molecular target: T9, TTK(h) (Homo sapiens, UniProt P33981)
T9 construct: purchased Eurofins Discovery Services (KinaseProfiler)
In short: as §1

FGFR2(N549H)(h) = molecular target: T10, FGFR2(N549H)(h) (Homo sapiens, UniProt P21802, N549H)
T10 construct: purchased Eurofins Discovery Services (KinaseProfiler)
In short: as §1

PAK1(h) = molecular target: T11, PAK1(h) (Homo sapiens, UniProt Q13153)
T11 construct: purchased Eurofins Discovery Services (KinaseProfiler)
In short: as §1

EphA4(h) = molecular target: T12, EphA4(h) (Homo sapiens, UniProt P54764)
T12 construct: purchased Eurofins Discovery Services (KinaseProfiler)
In short: as §1

JAK1(h) = molecular target: T13, JAK1(h) (Homo sapiens, UniProt P23458)
T13 construct: purchased Eurofins Discovery Services (KinaseProfiler)
In short: as §1

Aurora-B(h) = molecular target: T14, Aurora-B(h) (Homo sapiens, UniProt Q96GD4)
T14 construct: purchased Eurofins Discovery Services (KinaseProfiler)
In short: as §1

MST3(h) = molecular target: T15, MST3(h) (Homo sapiens, UniProt Q9Y6E0)
T15 construct: purchased Eurofins Discovery Services (KinaseProfiler)
In short: as §1

Lck(h) = molecular target: T16, Lck(h) (Homo sapiens, UniProt P06239)
T16 construct: purchased Eurofins Discovery Services (KinaseProfiler)
In short: as §1

TNIK(h) = molecular target: T17, TNIK(h) (Homo sapiens, UniProt Q9UKE5)
T17 construct: purchased Eurofins Discovery Services (KinaseProfiler)
In short: as §1

MAPKAP-K2(h) = molecular target: T18, MAPKAP-K2(h) (Homo sapiens, UniProt P49137)
T18 construct: purchased Eurofins Discovery Services (KinaseProfiler)
In short: as §1

RIPK2(h) = molecular target: T19, RIPK2(h) (Homo sapiens, UniProt O43353)
T19 construct: purchased Eurofins Discovery Services (KinaseProfiler)
In short: as §1

Rse(h) = molecular target: T20, Rse(h) (Homo sapiens, UniProt Q06418)
T20 construct: purchased Eurofins Discovery Services (KinaseProfiler)
In short: as §1

LIMK2(h) = molecular target: T21, LIMK2(h) (Homo sapiens, UniProt P53671)
T21 construct: purchased Eurofins Discovery Services (KinaseProfiler)
In short: as §1

PRKG2(h) = molecular target: T22, PRKG2(h) (Homo sapiens, UniProt Q13237)
T22 construct: purchased Eurofins Discovery Services (KinaseProfiler)
In short: as §1

TrkA(h) = molecular target: T23, TrkA(h) (Homo sapiens, UniProt P04629)
T23 construct: purchased Eurofins Discovery Services (KinaseProfiler)
In short: as §1

EphA5(h) = molecular target: T24, EphA5(h) (Homo sapiens, UniProt P54756)
T24 construct: purchased Eurofins Discovery Services (KinaseProfiler)
In short: as §1

Wee1B(h) = molecular target: T25, Wee1B(h) (Homo sapiens, UniProt P0C1S8)
T25 construct: purchased Eurofins Discovery Services (KinaseProfiler)
In short: as §1

BMPR2(h) = molecular target: T26, BMPR2(h) (Homo sapiens, UniProt Q13873)
T26 construct: purchased Eurofins Discovery Services (KinaseProfiler)
In short: as §1

cKit(V654A)(h) = molecular target: T27, cKit(V654A)(h) (Homo sapiens, UniProt P10721, V654A)
T27 construct: purchased Eurofins Discovery Services (KinaseProfiler)
In short: as §1

CaMKIV(h) = molecular target: T28, CaMKIV(h) (Homo sapiens, UniProt Q16566)
T28 construct: purchased Eurofins Discovery Services (KinaseProfiler)
In short: as §1

GRK6(h) = molecular target: T29, GRK6(h) (Homo sapiens, UniProt P43250)
T29 construct: purchased Eurofins Discovery Services (KinaseProfiler)
In short: as §1

EGFR(T790M,L858R)(h) = molecular target: T30, EGFR(T790M,L858R)(h) (Homo sapiens, UniProt P00533, L858R/T790M)
T30 construct: purchased Eurofins Discovery Services (KinaseProfiler)
In short: as §1

MOK(h) = molecular target: T31, MOK(h) (Homo sapiens, UniProt Q9UQ07)
T31 construct: purchased Eurofins Discovery Services (KinaseProfiler)
In short: as §1

BRK(h) = molecular target: T32, BRK(h) (Homo sapiens, UniProt Q13882)
T32 construct: purchased Eurofins Discovery Services (KinaseProfiler)
In short: as §1

LKB1(h) = molecular target: T33, LKB1(h) (Homo sapiens, UniProt Q15831)
T33 construct: purchased Eurofins Discovery Services (KinaseProfiler)
In short: as §1

Plk3(h) = molecular target: T34, Plk3(h) (Homo sapiens, UniProt Q9H4B4)
T34 construct: purchased Eurofins Discovery Services (KinaseProfiler)
In short: as §1

Tie2 (h) = molecular target: T35, Tie2 (h) (Homo sapiens, UniProt Q02763)
T35 construct: purchased Eurofins Discovery Services (KinaseProfiler)
In short: as §1

ALK2(h) = molecular target: T36, ALK2(h) (Homo sapiens, UniProt Q04771)
T36 construct: purchased Eurofins Discovery Services (KinaseProfiler)
In short: as §1

Itk(h) = molecular target: T37, Itk(h) (Homo sapiens, UniProt Q08881)
T37 construct: purchased Eurofins Discovery Services (KinaseProfiler)
In short: as §1

T22 sequence (Q13237 whole entry): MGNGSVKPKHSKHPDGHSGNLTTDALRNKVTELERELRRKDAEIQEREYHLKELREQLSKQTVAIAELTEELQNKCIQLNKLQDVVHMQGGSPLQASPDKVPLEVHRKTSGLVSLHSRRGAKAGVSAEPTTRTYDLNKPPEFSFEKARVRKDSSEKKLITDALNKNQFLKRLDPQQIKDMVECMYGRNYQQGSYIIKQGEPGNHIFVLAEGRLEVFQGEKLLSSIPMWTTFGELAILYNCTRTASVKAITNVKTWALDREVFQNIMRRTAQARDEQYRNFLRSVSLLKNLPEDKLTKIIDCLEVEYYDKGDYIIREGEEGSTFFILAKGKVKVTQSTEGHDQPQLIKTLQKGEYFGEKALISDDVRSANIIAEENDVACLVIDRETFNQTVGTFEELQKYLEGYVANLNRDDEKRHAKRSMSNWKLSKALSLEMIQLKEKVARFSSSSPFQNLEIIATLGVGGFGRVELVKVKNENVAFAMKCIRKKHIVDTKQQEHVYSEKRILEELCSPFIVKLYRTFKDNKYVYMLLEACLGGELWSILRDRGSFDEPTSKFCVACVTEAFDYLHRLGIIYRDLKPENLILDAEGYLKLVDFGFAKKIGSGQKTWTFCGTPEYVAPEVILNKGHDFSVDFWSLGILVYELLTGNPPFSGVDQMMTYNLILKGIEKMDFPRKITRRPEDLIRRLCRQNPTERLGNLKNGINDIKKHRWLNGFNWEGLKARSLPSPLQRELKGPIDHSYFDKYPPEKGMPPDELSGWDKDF
T29 sequence (P43250 whole entry): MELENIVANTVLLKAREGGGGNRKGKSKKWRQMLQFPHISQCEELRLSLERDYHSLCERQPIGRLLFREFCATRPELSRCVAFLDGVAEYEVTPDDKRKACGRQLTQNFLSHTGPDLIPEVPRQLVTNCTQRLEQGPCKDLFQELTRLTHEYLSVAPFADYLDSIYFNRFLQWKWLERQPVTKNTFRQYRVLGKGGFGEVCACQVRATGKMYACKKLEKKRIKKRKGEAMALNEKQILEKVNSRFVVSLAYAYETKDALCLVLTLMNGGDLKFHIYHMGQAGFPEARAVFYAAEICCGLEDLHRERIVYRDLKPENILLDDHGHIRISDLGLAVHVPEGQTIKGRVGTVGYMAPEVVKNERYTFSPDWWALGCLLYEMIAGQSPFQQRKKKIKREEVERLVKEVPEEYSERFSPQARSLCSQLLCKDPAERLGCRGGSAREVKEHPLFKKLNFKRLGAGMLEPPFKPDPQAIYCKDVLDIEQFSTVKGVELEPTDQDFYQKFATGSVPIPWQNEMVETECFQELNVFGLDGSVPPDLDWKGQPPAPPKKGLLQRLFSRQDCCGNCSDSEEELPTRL
T31 sequence (Q9UQ07 whole entry): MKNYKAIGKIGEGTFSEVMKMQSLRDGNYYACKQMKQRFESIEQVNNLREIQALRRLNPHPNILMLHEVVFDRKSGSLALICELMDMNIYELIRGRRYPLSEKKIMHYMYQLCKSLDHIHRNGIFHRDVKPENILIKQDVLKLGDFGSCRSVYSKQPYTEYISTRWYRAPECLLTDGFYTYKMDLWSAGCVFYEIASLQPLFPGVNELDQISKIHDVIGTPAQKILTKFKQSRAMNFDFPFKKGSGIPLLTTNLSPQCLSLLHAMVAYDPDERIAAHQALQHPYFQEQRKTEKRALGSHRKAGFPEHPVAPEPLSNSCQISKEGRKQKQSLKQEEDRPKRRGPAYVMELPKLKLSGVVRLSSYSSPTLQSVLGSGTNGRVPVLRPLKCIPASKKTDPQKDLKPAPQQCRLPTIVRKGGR
T11 sequence (Q13153 whole entry): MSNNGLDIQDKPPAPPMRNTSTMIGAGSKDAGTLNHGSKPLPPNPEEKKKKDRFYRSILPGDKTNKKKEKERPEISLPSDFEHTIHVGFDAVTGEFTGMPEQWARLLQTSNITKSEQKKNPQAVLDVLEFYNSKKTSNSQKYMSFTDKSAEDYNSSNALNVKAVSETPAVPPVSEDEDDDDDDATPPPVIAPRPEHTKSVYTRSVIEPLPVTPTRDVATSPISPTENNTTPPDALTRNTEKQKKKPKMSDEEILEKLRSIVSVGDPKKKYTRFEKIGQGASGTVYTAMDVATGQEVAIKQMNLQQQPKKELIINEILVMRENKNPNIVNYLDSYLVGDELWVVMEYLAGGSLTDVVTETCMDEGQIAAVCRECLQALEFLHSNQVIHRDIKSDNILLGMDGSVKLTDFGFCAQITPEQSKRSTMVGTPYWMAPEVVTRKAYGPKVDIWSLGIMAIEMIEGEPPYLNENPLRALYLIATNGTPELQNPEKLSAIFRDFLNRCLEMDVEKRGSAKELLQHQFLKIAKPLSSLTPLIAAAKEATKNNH
T18 sequence (P49137 whole entry): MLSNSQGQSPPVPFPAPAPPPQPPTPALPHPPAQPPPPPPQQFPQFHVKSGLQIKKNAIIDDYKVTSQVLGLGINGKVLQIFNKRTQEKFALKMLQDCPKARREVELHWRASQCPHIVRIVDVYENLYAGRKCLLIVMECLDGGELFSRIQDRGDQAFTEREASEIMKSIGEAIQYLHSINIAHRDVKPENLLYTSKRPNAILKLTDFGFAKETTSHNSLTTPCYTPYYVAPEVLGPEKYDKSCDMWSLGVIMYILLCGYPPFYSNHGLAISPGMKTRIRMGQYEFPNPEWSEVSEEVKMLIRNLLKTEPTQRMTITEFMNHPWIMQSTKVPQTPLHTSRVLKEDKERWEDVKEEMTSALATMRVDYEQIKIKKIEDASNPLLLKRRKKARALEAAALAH
T25 sequence (P0C1S8 whole entry): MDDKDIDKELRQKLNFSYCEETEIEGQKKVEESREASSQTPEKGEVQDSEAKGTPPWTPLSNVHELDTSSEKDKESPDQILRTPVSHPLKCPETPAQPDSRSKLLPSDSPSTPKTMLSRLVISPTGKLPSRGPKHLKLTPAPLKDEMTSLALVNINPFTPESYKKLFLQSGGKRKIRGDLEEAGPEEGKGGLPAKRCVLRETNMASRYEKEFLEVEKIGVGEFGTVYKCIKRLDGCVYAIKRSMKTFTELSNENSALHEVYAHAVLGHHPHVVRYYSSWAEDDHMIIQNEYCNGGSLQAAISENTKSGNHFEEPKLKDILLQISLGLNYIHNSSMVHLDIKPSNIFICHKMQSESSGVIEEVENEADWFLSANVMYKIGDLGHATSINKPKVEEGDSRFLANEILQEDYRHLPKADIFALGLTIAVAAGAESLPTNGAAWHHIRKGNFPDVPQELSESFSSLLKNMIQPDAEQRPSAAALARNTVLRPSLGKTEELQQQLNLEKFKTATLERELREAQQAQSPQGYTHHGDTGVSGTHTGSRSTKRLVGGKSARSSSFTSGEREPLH
T10 sequence (P21802 22-821 N549H): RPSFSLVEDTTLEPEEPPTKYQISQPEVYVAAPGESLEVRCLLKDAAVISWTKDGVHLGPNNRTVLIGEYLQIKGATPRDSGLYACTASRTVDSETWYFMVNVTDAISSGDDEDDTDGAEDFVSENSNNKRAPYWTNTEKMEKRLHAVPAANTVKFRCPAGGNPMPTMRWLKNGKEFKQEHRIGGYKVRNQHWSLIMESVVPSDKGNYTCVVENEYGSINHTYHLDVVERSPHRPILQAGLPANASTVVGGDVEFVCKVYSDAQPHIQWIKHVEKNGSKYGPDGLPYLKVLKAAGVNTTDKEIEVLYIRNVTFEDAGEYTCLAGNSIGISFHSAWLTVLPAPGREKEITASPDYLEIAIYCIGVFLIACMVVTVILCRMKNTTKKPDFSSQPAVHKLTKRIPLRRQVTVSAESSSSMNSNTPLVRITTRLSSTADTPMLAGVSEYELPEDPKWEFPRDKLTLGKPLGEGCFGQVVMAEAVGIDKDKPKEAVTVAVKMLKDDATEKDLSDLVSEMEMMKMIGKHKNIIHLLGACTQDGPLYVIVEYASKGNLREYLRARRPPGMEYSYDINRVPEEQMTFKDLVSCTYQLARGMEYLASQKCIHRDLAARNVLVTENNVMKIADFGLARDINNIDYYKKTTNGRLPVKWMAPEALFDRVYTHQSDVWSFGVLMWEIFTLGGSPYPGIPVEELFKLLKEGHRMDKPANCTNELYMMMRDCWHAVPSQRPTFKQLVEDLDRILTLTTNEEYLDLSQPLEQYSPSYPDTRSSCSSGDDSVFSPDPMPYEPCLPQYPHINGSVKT
T3 sequence (Q6PHR2 whole entry): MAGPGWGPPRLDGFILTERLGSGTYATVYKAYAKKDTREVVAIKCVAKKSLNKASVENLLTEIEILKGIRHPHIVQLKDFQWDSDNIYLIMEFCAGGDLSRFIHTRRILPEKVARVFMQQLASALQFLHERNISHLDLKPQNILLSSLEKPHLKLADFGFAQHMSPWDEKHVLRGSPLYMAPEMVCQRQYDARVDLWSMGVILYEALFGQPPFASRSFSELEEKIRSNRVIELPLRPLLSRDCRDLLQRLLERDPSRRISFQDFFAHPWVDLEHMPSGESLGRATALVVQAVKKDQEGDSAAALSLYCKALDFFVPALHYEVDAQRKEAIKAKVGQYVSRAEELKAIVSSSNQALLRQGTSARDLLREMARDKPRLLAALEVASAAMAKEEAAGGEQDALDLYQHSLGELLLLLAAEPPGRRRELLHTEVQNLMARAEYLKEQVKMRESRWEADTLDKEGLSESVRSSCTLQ
T28 sequence (Q16566 whole entry): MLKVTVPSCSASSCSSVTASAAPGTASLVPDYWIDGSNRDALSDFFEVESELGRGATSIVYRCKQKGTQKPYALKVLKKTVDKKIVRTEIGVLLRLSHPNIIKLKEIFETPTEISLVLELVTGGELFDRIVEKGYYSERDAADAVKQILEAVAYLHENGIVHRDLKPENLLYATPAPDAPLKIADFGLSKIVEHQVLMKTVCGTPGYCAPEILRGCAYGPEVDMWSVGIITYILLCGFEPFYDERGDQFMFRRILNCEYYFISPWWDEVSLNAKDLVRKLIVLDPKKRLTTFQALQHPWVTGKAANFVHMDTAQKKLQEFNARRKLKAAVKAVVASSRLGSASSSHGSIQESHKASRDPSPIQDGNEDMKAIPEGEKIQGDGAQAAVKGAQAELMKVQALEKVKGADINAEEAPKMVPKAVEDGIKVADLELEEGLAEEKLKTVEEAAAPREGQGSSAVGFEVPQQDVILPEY

Structure (SMILES): COc1cc(OC)cc(N(CCN[C@H](C)CO)c2ccc3ncc(-c4cnn(C)c4)c(=O)n3c2)c1 [RK-019, (R)-7-((3,5-dimethoxyphenyl) (2-((1-hydroxypropan-2-yl)amino)ethyl)amino)-3-(1-methyl-1H-pyrazol-4-yl)-4H-pyrido [1,2-a]pyrimidin-4-one]
- activity at 1 µM (CDKL1(h)): 97%
- activity at 1 µM (ZAP-70(h)): 119%
- activity at 1 µM (ULK3(h)): 91%
- activity at 1 µM (JAK3(h)): 97%
- activity at 1 µM (Met(D1246H)(h)): 89%
- activity at 1 µM [1]: 101%
- activity at 1 µM (CK1ε(h)): 99%
- activity at 1 µM (mTOR(h)): 105%
- activity at 1 µM (TTK(h)): 98%
- activity at 1 µM (FGFR2(N549H)(h)): -1%
- activity at 1 µM (PAK1(h)): 102%
- activity at 1 µM (EphA4(h)): 101%
- activity at 1 µM (JAK1(h)): 120%
- activity at 1 µM (Aurora-B(h)): 87%
- activity at 1 µM (MST3(h)): 122%
- activity at 1 µM (Lck(h)): 30%
- activity at 1 µM (TNIK(h)): 42%
- activity at 1 µM (MAPKAP-K2(h)): 121%
- activity at 1 µM (RIPK2(h)): 46%
- activity at 1 µM (Rse(h)): 104%
- activity at 1 µM (LIMK2(h)): 98%
- activity at 1 µM (PRKG2(h)): 100%
- activity at 1 µM (TrkA(h)): 92%
- activity at 1 µM (EphA5(h)): 45%
- activity at 1 µM (Wee1B(h)): 107%
- activity at 1 µM (BMPR2(h)): 116%
- activity at 1 µM (cKit(V654A)(h)): 104%
- activity at 1 µM (CaMKIV(h)): 113%
- activity at 1 µM (GRK6(h)): 114%
- activity at 1 µM (EGFR(T790M,L858R)(h)): 92%
- activity at 1 µM (MOK(h)): 97%
- activity at 1 µM (BRK(h)): 89%
- activity at 1 µM (LKB1(h)): 94%
- activity at 1 µM (Plk3(h)): 101%
- activity at 1 µM (Tie2 (h)): 105%
- activity at 1 µM (ALK2(h)): 90%
- activity at 1 µM (Itk(h)): 104%
